System: Botrytis cinerea
Test: M1 Activity against the grey mold Botrytis cinerea in the microtiterplate test (Botrci)
Assay type: cell-based
Details: 31 ppm, 405 nm, 7 days after inoculation; compound-free control 100%

SMILES	growth (relative growth in % of the pathogen) [%]
CCC(O)(Cn1cncn1)c1ccc(-c2ccccc2)cc1Cl (stereo not shown) [Compound I-13]	0
CC(F)(F)C(O)(Cn1cncn1)c1ccc(-c2ccccc2)cc1Cl (stereo not shown) [Compound I-14]	0
CC#CC(O)(Cn1cncn1)c1ccc(-c2ccccc2)cc1Cl (stereo not shown) [Compound I-10]	0
CC(O)(Cn1cncn1)c1ccc(-c2ccccc2)cc1Cl (stereo not shown) [Compound I-8]	0
CC(C)(C)C(O)(Cn1cncn1)c1ccc(-c2ccccc2)cc1Cl (stereo not shown) [Compound I-7]	0
OC(Cn1cncn1)(c1ccc(-c2ccccc2)cc1Cl)C1CC1 (stereo not shown) [Compound I-1]	0
C=CCCC(O)(Cn1cncn1)c1ccc(-c2ccccc2)cc1Cl (stereo not shown) [Compound I-9]	0
